Test results reported in patent US20210260022A1, “SYNERGY FOR INCREASING ENERGY EXPENDITURE AND INSULIN SENSITIVITY” (The Board of Supervisors of Louisiana State University and …, priority 2018, published 2021).

Legend:
human adipocytes = assay: qRT-PCR in human adipocytes (hADSC) treated two days with naringenin and inhibitors; type: cell-based; conditions: for CPT1β mRNA expression compared to control / UCP1 mRNA expression compared to control: naringenin 30 μM (whole orange extract), two days
Experimental: Human white adipocytes were treated for 2d with naringenin in the presence of inhibitors of metabolic pathways to determine the mechanism of action for stimulating fat oxidation and thermogenic energy expenditure.
Naringenin increased UCP1 and CPT1β mRNA induction compared to control (p<0.001). PPARα and PPARγ inhibition reduced UCP1 and CPT1β mRNA expression (p<0.001). Each experiment was conducted with three biological replicates and four technical replicates.
The whole orange extract was dissolved in DMSO at 15 mM (based on 28% naringenin content) and added to cells at a dilution of 1:500 to achieve a final concentration of 30 μM. The inhibitors added to the naringenin-treated cells included: peroxisome proliferator-activated receptor alpha (PPARα) antagonist GW6471 and peroxisome proliferator-activated receptor gamma (PPARγ) antagonist GW9662 (Cayman Chemical, Ann Arbor, Mich.) at 10 μM concentration, protein kinase A (PKA) inhibitor H89 (Millipore Sigma, Burlington, Mass.) at 20 μM concentration, and protein kinase G (PKG) inhibitor […] (Biolog Life Science Institute, AXXORA, LLC, Farmingdale, N.Y.) at 50 μM concentration. GW6471 and GW9662 were dissolved in DMSO at 1000×, H89 was dissolved in PBS at 500×, and Rp-8-pCPT-cGMPS was dissolved in PBS at 100× prior to dilution in cell culture medium. Following a two-day treatment, the cells were harvested with Trizol reagent. RNeasy Mini Kit (Qiagen, Germantown, Md.) was used to isolate total RNA following manufacturer's protocol. The expression of UCP1, CPT1β, and GLUT4 was quantified with one-step reverse transcriptase PCR using the reverse PCR primer to prime cDNA synthesis as previously described.^6

PPARγ = target: T1, PPARγ (Homo sapiens, UniProt P37231); conditions: reporter gene assays; cited from earlier work
T1 sequence (P37231 1-505): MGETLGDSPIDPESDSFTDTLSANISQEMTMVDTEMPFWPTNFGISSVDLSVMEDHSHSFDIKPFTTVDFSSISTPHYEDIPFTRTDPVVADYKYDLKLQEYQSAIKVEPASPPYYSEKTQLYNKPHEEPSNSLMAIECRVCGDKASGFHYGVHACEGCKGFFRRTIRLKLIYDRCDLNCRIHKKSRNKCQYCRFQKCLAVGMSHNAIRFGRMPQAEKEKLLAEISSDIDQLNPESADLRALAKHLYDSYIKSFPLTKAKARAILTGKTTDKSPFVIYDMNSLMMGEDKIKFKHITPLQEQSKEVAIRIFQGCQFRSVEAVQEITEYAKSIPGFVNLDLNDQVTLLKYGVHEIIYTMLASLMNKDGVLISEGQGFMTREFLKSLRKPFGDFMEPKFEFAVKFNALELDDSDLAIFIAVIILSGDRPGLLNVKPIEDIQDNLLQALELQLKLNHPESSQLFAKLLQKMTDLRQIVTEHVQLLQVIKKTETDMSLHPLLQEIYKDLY

ovariectomized mice = conditions: cited from earlier work
[1] = cell culture and animal studies; cited from earlier work

For `O=C1C[C@@H](c2ccc(O)cc2)Oc2cc(O)cc(O)c21` [naringenin], which “CPT1β mRNA expression compared to control” value (human adipocytes) is on record?
The value was “more than three-fold”.

What about the “UCP1 mRNA expression compared to control” value (human adipocytes) of the same compound?
Its value is “more than three-fold”.

And the “CPT1β mRNA expression compared to control” value (human adipocytes; listed as Naringenin)?
Its value is “increased”.

What about the “UCP1 mRNA expression compared to control” value (human adipocytes; listed as Naringenin) of the same compound?
Its value is “increased”.

What about the “GLUT4 mRNA expression” value (human adipocytes; naringenin, two-day period) of the same compound?
The value was “no increase”.

And the “activation of PPARγ” value (PPARγ)?
The value was “Direct activation”.

What about the “weight gain, glucose metabolism and muscle function” value (ovariectomized mice; ovariectomized mice fed a high fat diet) of the same compound?
The value was “reversed the weight gain and improved glucose metabolism and muscle function”.

And the “fasting glucose, insulin (and cholesterol) levels” value (ovariectomized mice; ovariectomized mice)?
The value was “improved fasting glucose, insulin and cholesterol levels”.

And the “weight gain caused by ovariectomy” value (ovariectomized mice; ovariectomized mice)?
Its value is “prevented the weight gain”.

What about the “concentration needed to elicit a physiologic response” value [1] of the same compound?
The value was 1-200 μm.
